# Measured values reported in ChEMBL document CHEMBL3507680, “University of Dundee, Gates Library screen for HepG2 cell viability”.
# Assay: Human HepG2 cell viability assay in 384 well format
# Format: toxicity, cell-based
# Design: dose 125 nL, time 70.5 hour; cytotoxicity at 70.5 h: concentration not given beside the values
# Details: HepG2 cells, read-out: Inhibition
row,Compound,cytotoxicity at 70.5 h [%]
1,Cc1ccc(O)c(C(=O)N2CCC3(CCCNC3)C2)c1 (stereo unspecified),-7.79
2,Cn1cccc1-c1cc(C(=O)N2CCCC2c2ccc(C(N)=O)s2)[nH]n1 (stereo unspecified),-2.9
3,Cc1cc2ccccc2n1CCC(=O)NCc1ncc[nH]1,-1.07
4,CN(C)CC1(O)CCN(S(=O)(=O)c2ccc(F)cc2)C1 (stereo unspecified),30.9
5,CN(C)CC1(O)CCN(S(=O)(=O)c2ccc(F)c(F)c2)C1 (stereo unspecified),32.6
6,CCC(=O)NCCc1cc(N2CCN(C(C)=O)CC2)nc(C2CC2)n1,-1.36
7,CNc1cc(CCNC(=O)c2cccnc2)nc(-c2ccncc2)n1,-7.53
8,Cc1cc(C2CCCN(C(=O)c3cnn(C)c3)C2)ccn1 (stereo unspecified),-8.77
9,CNC(=O)c1ccc(C2CN(C(=O)c3cncs3)CCO2)nc1 (stereo unspecified),-3.2
10,Cc1cc(C2CCCN(C(=O)c3cnccn3)C2)ccn1 (stereo unspecified),-0.249
11,Cc1nc(C(=O)N2CCCC(c3cccc(-n4ccnc4)n3)C2)co1 (stereo unspecified),4.94
12,CCOCC(=O)N1C[C@@H](O)[C@H](N(C)Cc2ccc(OC)cc2)C1,-13.7
13,O=C(Cn1c(=O)n(Cc2ccco2)c2ncccc21)Nc1ccccn1,-4.41
14,Cn1ccc(C(=O)N2CCCC(Cc3cccc4ncccc34)C2)n1 (stereo unspecified),35.2
15,CN1CC[C@H](c2ccccc2)[C@@H]2[C@H]1CCCCN2C(=O)c1cnccn1,-8.44
16,CCOCCCNc1nc(O)cc(C2CC(=O)N(C)C2)n1 (stereo unspecified),24.8
17,Cc1nc(C2CCN(C(=O)c3cccnc3)CC2)c2sccn12,0.00673
18,Fc1ccc(CN2CCC(c3n[nH]c4nccnc34)CC2)cc1F,7.75
19,O=C1NCC2(CCCN(Cc3ccccc3F)C2)Oc2ccccc21 (stereo unspecified),-14.5

row,Compound,cytotoxicity at 70.5 h [%]
1,Cc1csc2c(=O)n3c(nc12)CCN(C(=O)c1cccnc1)CC3,-19.9
2,NC(=O)C1CCCN(Cc2c(-c3ccco3)[nH]c3ncccc23)C1 (stereo unspecified),-10.6
3,CS(=O)(=O)N1CCC(C(=O)NC(Cc2ccsc2)c2nccs2)CC1 (stereo unspecified),-20.6
4,Fc1cccc(CN2CCC(c3n[nH]c4ncccc34)CC2)c1F,-9.75
5,O=C(NC(Cc1ccsc1)c1nccs1)C1CCOCC1 (stereo unspecified),-14.6
6,Cc1ccc2cc(CNCCCN3CCOCC3)c(=O)[nH]c2c1,-13
7,COCc1cc(O)nc(C2CCCN(Cc3cc(OC)ccc3F)C2)n1 (stereo unspecified),-4.84
8,CN(C)c1ncc(CN2CCC(c3nnsc3S(C)(=O)=O)CC2)cn1,-19.4
9,Cc1ccsc1-c1nnc(C2CCN(Cc3ccc(F)cc3)CC2)o1,-21.5
10,CN(C)Cc1ccnc(C2CCCN2Cc2cc[nH]n2)n1 (stereo unspecified),-1.65
11,Cc1ccccc1-c1cncc(C2CCN(C)CC2)n1,-14.3
12,CO[C@H]1CN(C(=O)c2ccc3oc(C)cc3c2)CC[C@@]12CCCO2,-13.4
13,O=C(COc1cccc(F)c1)N1C[C@@H](O)[C@H](N2CCCC2)C1,-10.1
14,COc1cccc(OC)c1C(=O)N1CCN(c2ccccc2F)CC1,39
15,CCc1cc(O)nc(C2CCCN2C(=O)c2cc(C)no2)n1 (stereo unspecified),8.47
16,CCc1cc(C(=O)N2CCCC2c2nc(C)c(F)c(O)n2)on1 (stereo unspecified),4.3
17,Nc1nc2nc(C3CCCN(C(=O)c4cscn4)C3)ccc2s1 (stereo unspecified),9.1
18,CNc1cccc(C2CCCN(C(C)=O)C2)n1 (stereo unspecified),-19.3
19,CCC(=O)N1CCCC1c1nccnc1Nc1nc(C)cc(C)n1 (stereo unspecified),-14

row,Compound,cytotoxicity at 70.5 h [%]
1,CN(Cc1ccc(F)cc1)[C@@H]1CN(C(=O)c2cccs2)C[C@H]1O,-17.9
2,CN(c1ccncn1)C1CC2(CCN(C(=O)c3ccsc3)C2)C1 (stereo unspecified),-28.9
3,NCc1cn(-c2ccccc2C(=O)NCc2cccc(Cl)c2)cn1,-13.7
4,Cc1cccc(C(=O)N2CCC(Cc3cnc4[nH]ccc4c3)CC2)n1,-7.84
5,Cc1cncc(C2CCCN(C(=O)c3c[nH]c(=O)[nH]c3=O)C2)n1 (stereo unspecified),-22.8
6,COc1cccc(S(=O)(=O)N2CCC(O)(CN(C)C)C2)c1 (stereo unspecified),-19.7
7,Cc1nc(O)c2nnn(C[C@H]3CCCN3C(=O)C(C)(C)C)c2n1,-13.1
8,COc1ccc(CN2CCC3(CC(Nc4ccncn4)C3)C2)c(OC)c1 (stereo unspecified),-6.97
9,O=C1CN(Cc2ccc(-c3ccccc3C(=O)O)cc2)CCN1,37.1
10,CNc1ccc(CC2CCCN(C(=O)c3cnc(C)nc3)C2)nn1 (stereo unspecified),-6.58
11,CC(=O)N1CCC(c2cc(C(F)(F)F)n3ccnc3n2)CC1,5.43
12,Cc1c(C2CCCN(C(=O)C3CC3)C2)n2c(nc1=O)CCC2 (stereo unspecified),-3.86
13,Cc1ccc(S(=O)(=O)N2CCc3nc(C4CCNCC4)ncc3C2)cc1,-8.7
14,CCCC(=O)N1CCC(O)(Cn2c(CC)nc3ccccc3c2=O)CC1,-16.7
15,COc1cccc(-c2noc(C3CCN(Cc4cccs4)C3)n2)c1 (stereo unspecified),8.44
16,CC(C)(C)C(=O)N1C[C@H](c2ccsc2)[C@H]2CN(Cc3cccs3)CC[C@H]21,0.661
17,Cc1ccc(CN(Cc2ccccn2)C2CC(C)(C)NC(C)(C)C2)s1,-7.96
18,CCn1ncc(-c2nc3c[nH]n(CC)c-3n2)c1C,0.803
